Laboratory results taken from PubChem BioAssay AID1963962 (Molecular Pharmacology Branch, DTP, NCI, 2024).

Test system: 967376-340-R-J2-PDC multicell spheroid viability
Assay: Anticancer human tumor 967376-340-R-J2-PDC patient-derived colon adenocarcinoma cell line growth inhibition [PI3K]
Conditions: for IC50: curve of first compound; for viability, T/C: stronger effect = lower value
How it was run: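 High-throughput combination screen: PI3K inhibitors crossed with targeted small molecules on complex spheroids of tumor cells, HUVEC and MSCs at 37 degrees C, 5% CO2. Top concentration was at or near clinical Cmax (otherwise 10 microM), with half-log decrements.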

[1] = second compound 0.0316 µM, first compound 0.0316 µM
[2] = second compound 0.0316 µM, first compound 0.1 µM
[3] = second compound 0.0316 µM, first compound 0.316 µM
[4] = second compound 0.0316 µM, first compound 1 µM
[5] = second compound 0.1 µM, first compound 0.0316 µM
[6] = second compound 0.1 µM, first compound 0.1 µM
[7] = second compound 0.1 µM, first compound 0.316 µM
[8] = second compound 0.1 µM, first compound 1 µM
[9] = second compound 0.316 µM, first compound 0.0316 µM
[10] = second compound 0.316 µM, first compound 0.1 µM
[11] = second compound 0.316 µM, first compound 0.316 µM
[12] = second compound 0.316 µM, first compound 1 µM
[13] = second compound 1 µM, first compound 0.0316 µM
[14] = second compound 1 µM, first compound 0.1 µM
[15] = second compound 1 µM, first compound 0.316 µM
[16] = second compound 1 µM, first compound 1 µM
[17] = second compound 3.16 µM, first compound 0.0316 µM
[18] = second compound 3.16 µM, first compound 0.1 µM
[19] = second compound 3.16 µM, first compound 0.316 µM
[20] = second compound 3.16 µM, first compound 1 µM
[21] = second compound 10 µM, first compound 0.0316 µM
[22] = second compound 10 µM, first compound 0.1 µM
[23] = second compound 10 µM, first compound 0.316 µM
[24] = second compound 10 µM, first compound 1 µM
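Note: spheroids exposed to agents for 7 days before read-out.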
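Throughout, for viability, T/C: luminescence used as surrogate of cell viability.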

With `Cn1nccc1Nc1nccc(-c2ccn(C(CO)c3ccc(Cl)c(F)c3)c(=O)c2)n1` (centres undefined) + CC(Nc1ncnc2nc[nH]c12)c1cc2cccc(Cl)c2c(=O)n1-c1ccccc1 the IC50 (second compound 0.0316 µM) was greater than 10 µM, the IC50 (second compound 0.1 µM) was greater than 10 µM and the IC50 (second compound 0.316 µM) was greater than 10 µM. For the same compound, the IC50 (second compound 1 µM) was greater than 10 µM, the IC50 (second compound 3.16 µM) was greater than 10 µM and the IC50 (second compound 10 µM) was greater than 10 µM. For the same compound, the viability, T/C [1] was 97.2%, the viability, T/C [2] was 115% and the viability, T/C [3] was 101%. The viability, T/C [4] was 102%, the viability, T/C (second compound 0.0316 µM, first compound 3.16 µM) was 101% and the viability, T/C (second compound 0.0316 µM, first compound 10 µM) was 114%. It also gave a viability, T/C [5] of 103%, a viability, T/C [6] of 105% and a viability, T/C [7] of 95.9%. The viability, T/C [8] was 128%, the viability, T/C (second compound 0.1 µM, first compound 3.16 µM) was 128% and the viability, T/C (second compound 0.1 µM, first compound 10 µM) was 106%. It also gave a viability, T/C [9] of 107%, a viability, T/C [10] of 115% and a viability, T/C [11] of 114%. The viability, T/C [12] was 76.1%, the viability, T/C (second compound 0.316 µM, first compound 3.16 µM) was 104% and the viability, T/C (second compound 0.316 µM, first compound 10 µM) was 110%. It also gave a viability, T/C [13] of 96.2%, a viability, T/C [14] of 93.3% and a viability, T/C [15] of 87.8%. The viability, T/C [16] was 89%, the viability, T/C (second compound 1 µM, first compound 3.16 µM) was 99% and the viability, T/C (second compound 1 µM, first compound 10 µM) was 96.3%. It also gave a viability, T/C [17] of 87.5%, a viability, T/C [18] of 85.3% and a viability, T/C [19] of 80.1%. It also gave a viability, T/C [20] of 89.3%, a viability, T/C (second compound 3.16 µM, first compound 3.16 µM) of 99.7% and a viability, T/C (second compound 3.16 µM, first compound 10 µM) of 81.4%. It also gave a viability, T/C [21] of 95.7%, a viability, T/C [22] of 73.4% and a viability, T/C [23] of 86.3%. For the same compound, the viability, T/C [24] was 86.7%, the viability, T/C (second compound 10 µM, first compound 3.16 µM) was 76.2% and the viability, T/C (second compound 10 µM, first compound 10 µM) was 75.3%.
`CCN1CCN(Cc2ccc(Nc3ncc(F)c(-c4cc(F)c5nc(C)n(C(C)C)c5c4)n3)nc2)CC1` + CC(Nc1ncnc2nc[nH]c12)c1cc2cccc(Cl)c2c(=O)n1-c1ccccc1 showed an IC50 (second compound 0.0316 µM) greater than 1 µM, an IC50 (second compound 0.1 µM) greater than 1 µM and an IC50 (second compound 0.316 µM) greater than 1 µM. It also gave an IC50 (second compound 1 µM) greater than 1 µM, an IC50 (second compound 3.16 µM) greater than 1 µM and an IC50 (second compound 10 µM) greater than 1 µM. For the same compound, the viability, T/C (second compound 0.0316 µM, first compound 0.00316 µM) was 93.1%, the viability, T/C (second compound 0.0316 µM, first compound 0.01 µM) was 95.1% and the viability, T/C [1] was 91.3%. It also gave a viability, T/C [2] of 73.8%, a viability, T/C [3] of 88.5% and a viability, T/C [4] of 70.1%. It also gave a viability, T/C (second compound 0.1 µM, first compound 0.00316 µM) of 103%, a viability, T/C (second compound 0.1 µM, first compound 0.01 µM) of 106% and a viability, T/C [5] of 74.9%. The viability, T/C [6] was 87.9%, the viability, T/C [7] was 74.4% and the viability, T/C [8] was 86.8%. For the same compound, the viability, T/C (second compound 0.316 µM, first compound 0.00316 µM) was 113%, the viability, T/C (second compound 0.316 µM, first compound 0.01 µM) was 95.7% and the viability, T/C [9] was 100%. The viability, T/C [10] was 83.9%, the viability, T/C [11] was 79.5% and the viability, T/C [12] was 65.1%. The viability, T/C (second compound 1 µM, first compound 0.00316 µM) was 111%, the viability, T/C (second compound 1 µM, first compound 0.01 µM) was 87% and the viability, T/C [13] was 86.8%. The viability, T/C [14] was 80%, the viability, T/C [15] was 78.6% and the viability, T/C [16] was 58.6%. The viability, T/C (second compound 3.16 µM, first compound 0.00316 µM) was 95.7%, the viability, T/C (second compound 3.16 µM, first compound 0.01 µM) was 77.7% and the viability, T/C [17] was 94.5%. It also gave a viability, T/C [18] of 72.6%, a viability, T/C [19] of 75.9% and a viability, T/C [20] of 60%. It also gave a viability, T/C (second compound 10 µM, first compound 0.00316 µM) of 92%, a viability, T/C (second compound 10 µM, first compound 0.01 µM) of 85.9% and a viability, T/C [21] of 72%. It also gave a viability, T/C [22] of 62%, a viability, T/C [23] of 67.3% and a viability, T/C [24] of 48.6%.
